The series can be described thus: Water solubility. As to conditions: lisuride or a salt thereof.

For the compound `CCN(CC)C(=O)N[C@H]1C=C2c3cccc4[nH]cc(c34)C[C@H]2N(C)C1` [lisuride, 3-(9,10-didehydro-6-methyl-8α-ergolinyl)-1,1-diethyl urea], the water solubility entry was “good water solubility”.

The values are drawn from patent US20040219191A1, “Use of a dopamine agonist with a short half-life for treating illnesses which can be treated by dopaminergic means” (priority 2000, published 2004).
